The source of these data is patent US20250145594A1, “MODULATORS OF THE INTEGRATED STRESS PATHWAY” (Calico Life Sciences LLC, priority 2020, published 2025).

This assay deals with ATF4 luciferase reporter in HEK293T cells. Briefly: ATF4-Luc assay (in vitro model of VWMD). Type of assay: cell-based, human. The settings on record: Homo sapiens, HEK-293T, 7 h, HEK293T cells carrying the ATF4 luciferase reporter, 1 μg/mL tunicamycin, One Glo luminescence. The essentials:
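Tunicamycin (1 μg/mL) stress with co-added compound for 7 hours in HEK293T cells stably carrying an ATF4 5′-UTR–luciferase reporter. EC50 values come from the luminescent signal (One Glo).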
On the technique in general: Reporter assays use an easily measured gene product as a stand-in for the process of interest.
For `O=C(NC12CC(n3cc(C(=O)N4CC(OC(F)(F)F)C4)cn3)(C1)C2)[C@H]1C[C@@H](O)c2cc(Cl)ccc2O1` [Compound 341, (2R,4R)-6-chloro-4-hydroxy-N-(3-{4-[3-(trifluoromethoxy)azetidine-1-carbonyl]-1H-pyrazol-1-yl}bicyclo[1.1.1]pentan-1-yl)-3,4-dihydro-2H-1-benzopyran-2-carboxamide], the EC50 (as a rule, the concentration needed to bring the measured effect to its halfway point) is 10 to 50 nM. As to `O=C(N[C@H]1CC[C@H](n2cc(OCCOC(F)(F)F)cn2)CC1)[C@H]1C[C@@H](O)c2cc(F)c(F)cc2O1` [Compound 638, (2R,4R)-6,7-difluoro-4-hydroxy-N-[(1r,4R)-4-{4-[2-(trifluoromethoxy)ethoxy]-1H-pyrazol-1-yl}cyclohexyl]-3,4-dihydro-2H-1-benzopyran-2-carboxamide], the EC50 was below 10 nM. Consider `COc1ccc2cn(C34CC(NC(=O)[C@H]5C[C@@H](O)c6cc(Cl)c(F)cc6O5)(C3)C4)nc2c1` [Compound 504, (2R,4R)-6-chloro-7-fluoro-4-hydroxy-N-[3-(6-methoxy-2H-indazol-2-yl)bicyclo[1.1.1]pentan-1-yl]-3,4-dihydro-2H-1-benzopyran-2-carboxamide], for which the EC50 was below 10 nM. Consider `O=C(NC12CC(n3cc(CCCOC(F)(F)F)nn3)(C1)C2)[C@H]1C[C@@H](O)c2cc(Cl)ccc2O1` [Compound 516, (2R,4R)-6-chloro-4-hydroxy-N-(3-{4-[3-(trifluoromethoxy)propyl]-1H-1,2,3-triazol-1-yl}bicyclo[1.1.1]pentan-1-yl)-3,4-dihydro-2H-1-benzopyran-2-carboxamide], for which the EC50 is below 10 nM.

In the case of `O=C(NC12CC(n3cc(N4CC[C@H](OC(F)(F)F)C4)cn3)(C1)C2)[C@H]1C[C@@H](O)c2cc(Cl)ccc2O1` [Compound 355, (2R,4R)-6-chloro-4-hydroxy-N-(3-{4-[(3S)-3-(trifluoromethoxy)pyrrolidin-1-yl]-1H-pyrazol-1-yl}bicyclo[1.1.1]pentan-1-yl)-3,4-dihydro-2H-1-benzopyran-2-carboxamide], the EC50 is 10 to 50 nM. The figure for `O=C(COc1ccc(Cl)c(F)c1)NC12CC(c3ccc(C(=O)N4CC[C@H](OC(F)(F)F)C4)nc3)(C1)C2` [Compound 603, 2-(4-chloro-3-fluorophenoxy)-N-(3-{6-[(3S)-3-(trifluoromethoxy)pyrrolidine-1-carbonyl]pyridin-3-yl}bicyclo[1.1.1]pentan-1-yl)acetamide] is below 10 nM; for `O=C(NC12CCC(n3cc(OCCOC(F)(F)F)cn3)(C1)C2)[C@H]1C[C@@H](O)c2cc(Cl)c(F)cc2O1` [Compound 590, (2R,4R)-6-chloro-7-fluoro-4-hydroxy-N-(4-{4-[2-(trifluoromethoxy)ethoxy]-1H-pyrazol-1-yl}bicyclo[2.1.1]hexan-1-yl)-3,4-dihydro-2H-1-benzopyran-2-carboxamide] it is 10 to 50 nM. The figure for `O=C(NC12CC(c3ccc(C(=O)N4CC(OC(F)(F)F)C4)nc3)(C1)C2)[C@H]1C[C@@H](O)c2cc(Cl)ccc2O1` [Compound 536, (2R,4R)-6-chloro-4-hydroxy-N-(3-{6-[3-(trifluoromethoxy)azetidine-1-carbonyl]pyridin-3-yl}bicyclo[1.1.1]pentan-1-yl)-3,4-dihydro-2H-1-benzopyran-2-carboxamide] is below 10 nM; for `O=C(COc1ccc(Cl)c(F)c1)NC12CC(c3ccnc(OCCCOC(F)(F)F)c3)(C1)C2` [Compound 453, 2-(4-chloro-3-fluorophenoxy)-N-(3-{2-[3-(trifluoromethoxy)propoxy]pyridin-4-yl}bicyclo[1.1.1]pentan-1-yl)acetamide] it is below 10 nM; for `O=C(NC12CC(n3cc(C(=O)N4CC[C@H](OC(F)(F)F)C4)cn3)(C1)C2)[C@@H]1C[C@@H](O)c2cc(C(F)(F)F)ccc2O1` [Compound 378, (2S,4R)-4-hydroxy-N-(3-{4-[(3S)-3-(trifluoromethoxy)pyrrolidine-1-carbonyl]-1H-pyrazol-1-yl}bicyclo[1.1.1]pentan-1-yl)-6-(trifluoromethyl)-3,4-dihydro-2H-1-benzopyran-2-carboxamide] it is below 10 nM.
